The test system of the experiment is rabbit skeletal myofibrils (approximately 90% fast fibers). Put plainly: Activation of fast skeletal myofibrils (PUMA coupled-enzyme ATPase assay, AC1.4). In kind it is biochemical. To be noted: concentration at which the compound increased enzymatic activity by 40%, calcium at pCa25.

Regarding `CC(C)(CNc1nc(-c2ccc(C(N)=O)nc2)ns1)c1ccc(F)cc1` [5-(5-{[2-(4-fluorophenyl)-2-methylpropyl]amino}-1,2,4-thiadiazol-3-yl)pyridine-2-carboxamide], under “Table 2”, the “Mean AC1.4” value is given as “A (A=<1 uM)”.
Turning to `CC(C)(CNc1nc(-c2cncc(C#N)c2)ns1)c1ccc(F)cc1` [5-(5-{[2-(4-fluorophenyl)-2-methylpropyl]amino}-1,2,4-thiadiazol-3-yl)pyridine-3-carbonitrile], where the note is “Table 2”, the “Mean AC1.4” value is recorded as “B (B=1-10 uM)”.
Same read-out and setting: with `CC(C)(CNc1nc(-c2cncc(C(N)=O)c2)ns1)c1ccc(F)cc1` [5-(5-{[2-(4-fluorophenyl)-2-methylpropyl]amino}-1,2,4-thiadiazol-3-yl)pyridine-3-carboxamide] the entry was “A (A=<1 uM)”.
Same read-out and setting: with `C[C@H](CNc1nc(-c2ccc(O)nc2)ns1)c1ccc(F)cc1` [5-(5-{[(2S)-2-(4-fluorophenyl)propyl]amino}-1,2,4-thiadiazol-3-yl)pyridin-2-ol] the entry was “B (B=1-10 uM)”; with `C[C@H](CNc1nc(-c2cncc(C#N)c2)ns1)c1ccc(F)cc1` [5-(5-{[(2S)-2-(4-fluorophenyl)propyl]amino}-1,2,4-thiadiazol-3-yl)pyridine-3-carbonitrile], “C (C=10-20 uM)”; with `C[C@H](CNc1nc(-c2cncc(C(N)=O)c2)ns1)c1ccc(F)cc1` [5-(5-{[(2S)-2-(4-fluorophenyl)propyl]amino}-1,2,4-thiadiazol-3-yl)pyridine-3-carboxamide], “B (B=1-10 uM)”.
Consider `Fc1cccnc1C1(CNc2nnc(Cc3ccccc3)s2)CCC1` [5-benzyl-N-((1-(3-fluoropyridin-2-yl)cyclobutyl)methyl)-1,3,4-thiadiazol-2-amine], for which, under “Table 3”, the “Mean AC1.4” value is given as “D (D=>20 uM)”.
On to `CC(C)(CNc1nc2cc(Cl)ccc2s1)c1ccc(F)cc1` [5-chloro-N-(2-(4-fluorophenyl)-2-methylpropyl)benzo[d]thiazol-2-amine], for which the “Mean AC1.4” value (Table 4) is listed as “B (B=1-10 uM)”.
Regarding `Fc1cccnc1C1(CNc2nnc(C3CCCC3)s2)CCC1` [5-cyclopentyl-N-((1-(3-fluoropyridin-2-yl)cyclobutyl)methyl)-1,3,4-thiadiazol-2-amine], under “Table 3”, the “Mean AC1.4” value is given as “B (B=1-10 uM)”.
As for `CC(C)(CNc1nc(C(N)=O)ns1)c1ccc(F)cc1` [5-{[2-(4-Fluorophenyl)-2-methylpropyl]amino}-1,2,4-thiadiazole-3-carboxamide], the “Mean AC1.4” value (Table 2) is recorded as “C (C=10-20 uM)”.
For `CC(C)(CNc1nc2ccc(Cl)cc2s1)c1ccc(F)cc1` [6-chloro-N-(2-(4-fluorophenyl)-2-methylpropyl)benzo[d]thiazol-2-amine], the “Mean AC1.4” value (Table 4) is reported as “A (A=<1 uM)”.
Take `Fc1cccnc1C1(CNc2nc3ccc(Cl)cc3s2)CCC1` [6-chloro-N-((1-(3-fluoropyridin-2-yl)cyclobutyl)methyl)benzo[d] thiazol-2-amine]: for the setting “Table 4”, the “Mean AC1.4” value is “B (B=1-10 uM)”.
As for `COc1cccnc1C1(CNc2nc3ccc(Cl)cc3s2)CCC1` [6-chloro-N-((1-(3-methoxypyridin-2-yl)cyclobutyl)methyl)benzo[d] thiazol-2-amine], the “Mean AC1.4” value (Table 4) is given as “B (B=1-10 uM)”.
Consider `Fc1ccc(C2(CNc3nc4ccc(Cl)cc4s3)CCC2)cc1` [6-chloro-N-((1-(4-fluorophenyl)cyclobutyl)methyl) benzo[d]thiazol-2-amine], for which the “Mean AC1.4” value (Table 4) is “A (A=<1 uM)”.
On the same count and under the same terms, as for `COc1ccc(C2(CNc3nc4ccc(Cl)cc4s3)CCC2)nc1` [6-chloro-N-((1-(5-methoxypyridin-2-yl)cyclobutyl)methyl)benzo[d] thiazol-2-amine], the entry is “B (B=1-10 uM)”.
On the same count and under the same terms, as for `Clc1ccc2nc(NCC3(c4ccccn4)CCC3)sc2c1` [6-chloro-N-((1-(pyridin-2-yl)cyclobutyl)methyl)benzo[d] thiazol-2-amine], the entry is “B (B=1-10 uM)”.
As to `CC(C)(CNc1nc2cccc(Cl)c2s1)c1ccc(F)cc1` [7-chloro-N-(2-(4-fluorophenyl)-2-methylpropyl)benzo[d]thiazol-2-amine], where the note is “Table 4”, the “Mean AC1.4” value is reported as “B (B=1-10 uM)”.
As for `COc1cccc(Cc2nsc(NCCc3ccc4c(c3)OCO4)n2)c1` [(2-(2H-benzo[d]1,3-dioxolan-5-yl)ethyl){3-[(3-methoxyphenyl)methyl](1,2,4-thiadiazol-5-yl)}amine], under “Table 2”, the “Mean AC1.4” value is “D (D=>20 uM)”.
Take `COc1cccc(Cc2nsc(Nc3ccc(Cl)c(Cl)c3)n2)c1` [(3,4-dichlorophenyl){3-[(3-methoxyphenyl)methyl](1,2,4-thiadiazol-5-yl)}amine]: the “Mean AC1.4” value (Table 2) is given as “D (D=>20 uM)”.
On to `Fc1ccc(Cc2nsc(Nc3ccc(Cl)c(Cl)c3)n2)cc1` [(3,4-dichlorophenyl){3-[(4-fluorophenyl)methyl](1,2,4-thiadiazol-5-yl)}amine], for which, under “Table 2”, the “Mean AC1.4” value was “D (D=>20 uM)”.
On the same count and under the same terms, with `CCc1nsc(NCC(C)(C)c2ccc(F)cc2)n1` [(3-ethyl(1,2,4-thiadiazol-5-yl))[2-(4-fluorophenyl)-2-methylpropyl]amine] the entry was “B (B=1-10 uM)”; with `CC(C)(O)/C=C/c1nsc(NCC(C)(C)c2ccc(F)cc2)n1` [(3E)-4-(5-{[2-(4-fluorophenyl)-2-methylpropyl]amino}(1,2,4-thiadiazol-3-yl))-2-methylbut-3-en-2-ol], “B (B=1-10 uM)”; with `CC(C)(CNc1nc(CCN2CC[C@@H](O)C2)ns1)c1ccc(F)cc1` [(3R)-1-[2-(5-{[2-(4-fluorophenyl)-2-methylpropyl]amino}(1,2,4-thiadiazol-3-yl))ethyl]pyrrolidin-3-ol], “C (C=10-20 uM)”.
Consider `CC(C)(CNc1nc(CCN2CC[C@H](O)C2)ns1)c1ccc(F)cc1` [(3S)-1-[2-(5-{[2-(4-fluorophenyl)-2-methylpropyl]amino}(1,2,4-thiadiazol-3-yl))ethyl]pyrrolidin-3-ol], for which, for the setting “Table 2”, the “Mean AC1.4” value was “C (C=10-20 uM)”.
Same read-out and setting: as for `CC(C)(CNc1nc(CN2CC[C@H](O)C2)ns1)c1ccc(F)cc1` [(3S)-1-[(5-{[2-(4-fluorophenyl)-2-methylpropyl]amino}(1,2,4-thiadiazol-3-yl))methyl]pyrrolidin-3-ol], the entry is “D (D=>20 uM)”; as for `COc1cccc(Cc2nsc(Nc3ccc(Cl)cc3)n2)c1` [(4-chlorophenyl){3-[(3-methoxyphenyl)methyl](1,2,4-thiadiazol-5-yl)}amine], “D (D=>20 uM)”.
For `Fc1ccc(Cc2nsc(Nc3ccc(Cl)cc3)n2)cc1` [(4-chlorophenyl){3-[(4-fluorophenyl)methyl](1,2,4-thiadiazol-5-yl)}amine], where the note is “Table 2”, the “Mean AC1.4” value is given as “D (D=>20 uM)”.
Take `CC(C)(CNc1nc(-c2cccnc2)no1)c1ccc(F)cc1` [N-(2-(4-fluorophenyl)-2-methylpropyl)-3-(pyridin-3-yl)-1,2,4-oxadiazol-5-amine]: the “Mean AC1.4” value (Table 5) is “C (C=10-20 uM)”.
Turning to `COc1ccc2nc(NCC(C)(C)c3ccc(F)cc3)sc2c1` [N-(2-(4-fluorophenyl)-2-methylpropyl)-6-methoxybenzo[d]thiazol-2-amine], the “Mean AC1.4” value (Table 4) is “A (A=<1 uM)”.
For `CC(C)(CNc1nc2ccccc2s1)c1ccc(F)cc1` [N-(2-(4-fluorophenyl)-2-methylpropyl)benzo[d]thiazol-2-amine], for the setting “Table 4”, the “Mean AC1.4” value is reported as “B (B=1-10 uM)”.
On to `Fc1cccnc1C1(CNc2cnn(-c3ccccc3)c2)CCC1` [N-((1-(3-fluoropyridin-2-yl)cyclobutyl)methyl)-1-phenyl-1H-pyrazol-4-amine], for which the “Mean AC1.4” value (Table 5) is “D (D=>20 uM)”.
On the same count and under the same terms, as for `Fc1cccnc1C1(CNc2cnc(-c3ccccc3)s2)CCC1` [N-((1-(3-fluoropyridin-2-yl)cyclobutyl)methyl)-2-phenylthiazol-5-amine], the entry is “D (D=>20 uM)”; as for `Cc1nc(NCC2(c3ncccc3F)CCC2)sc1-c1ccccc1` [N-((1-(3-fluoropyridin-2-yl)cyclobutyl)methyl)-4-methyl-5-phenylthiazol-2-amine], “A (A=<1 uM)”.
On to `Fc1cccnc1C1(CNc2nc(-c3ccccc3)co2)CCC1` [N-((1-(3-fluoropyridin-2-yl)cyclobutyl)methyl)-4-phenyloxazol-2-amine], for which the “Mean AC1.4” value (Table 5) is reported as “D (D=>20 uM)”.
On the same count and under the same terms, as for `Fc1cccnc1C1(CNc2nc(-c3ccccc3)cs2)CCC1` [N-((1-(3-fluoropyridin-2-yl)cyclobutyl)methyl)-4-phenylthiazol-2-amine], the entry is “B (B=1-10 uM)”.
For `Cn1cc(-c2nnc(NCC3(c4ncccc4F)CCC3)s2)cn1` [N-((1-(3-fluoropyridin-2-yl)cyclobutyl)methyl)-5-(1-methyl-1H-pyrazol-4-yl)-1,3,4-thiadiazol-2-amine], for the setting “Table 3”, the “Mean AC1.4” value is on record as “D (D=>20 uM)”.
For `Cn1nccc1-c1nnc(NCC2(c3ncccc3F)CCC2)s1` [N-((1-(3-fluoropyridin-2-yl)cyclobutyl)methyl)-5-(1-methyl-1H-pyrazol-5-yl)-1,3,4-thiadiazol-2-amine], the “Mean AC1.4” value (Table 3) is reported as “D (D=>20 uM)”.
Consider `Fc1cccnc1C1(CNc2nnc(-c3nccs3)s2)CCC1` [N-((1-(3-fluoropyridin-2-yl)cyclobutyl)methyl)-5-(thiazol-2-yl)-1,3,4-thiadiazol-2-amine], for which, where the note is “Table 3”, the “Mean AC1.4” value is on record as “B (B=1-10 uM)”.
Regarding `Fc1cccnc1C1(CNc2nnc(-c3cscn3)s2)CCC1` [N-((1-(3-fluoropyridin-2-yl)cyclobutyl)methyl)-5-(thiazol-4-yl)-1,3,4-thiadiazol-2-amine], under “Table 3”, the “Mean AC1.4” value is reported as “B (B=1-10 uM)”.
For `Fc1cccnc1C1(CNc2nnc(-c3cccs3)s2)CCC1` [N-((1-(3-fluoropyridin-2-yl)cyclobutyl)methyl)-5-(thiophen-2-yl)-1,3,4-thiadiazol-2-amine], the “Mean AC1.4” value (Table 3) was “B (B=1-10 uM)”.
In the case of `Cc1ccccc1-c1nnc(NCC2(c3ncccc3F)CCC2)s1` [N-((1-(3-fluoropyridin-2-yl)cyclobutyl)methyl)-5-o-tolyl-1,3,4-thiadiazol-2-amine], the “Mean AC1.4” value (Table 3) is “B (B=1-10 uM)”.
As for `Cc1ccc(-c2nnc(NCC3(c4ncccc4F)CCC3)s2)cc1` [N-((1-(3-fluoropyridin-2-yl)cyclobutyl)methyl)-5-p-tolyl-1,3,4-thiadiazol-2-amine], the “Mean AC1.4” value (Table 3) is reported as “B (B=1-10 uM)”.
